Data set [1] addresses T1, mu/kappa opioid heterodimers (Mus musculus, UniProt P33534+P42866).
T1 construct: expressed in transfected cells
The class given is cell-based, murine.

Another data set deals with T2, mu opioid receptor (Mus musculus, UniProt P42866).
T2 construct: expressed in transfected cells
The experiment in a line: Ca2+ release, HEK-293 mu cells. The class given is cell-based, murine.

The target of data set [2] is mu/delta opioid receptors (Mus musculus, UniProt P32300+P42866). To be noted: Mu/delta cells.
The subject of data set [3] is mice. Description: Radiant heat tail flick antinociception. The class given is in vivo, mouse.
Data set [4] has as its system mice. To be noted: i.c.v. morphine-infused mice; cited from earlier work.
The test system of data set [5] is mice. To be noted: chronic i.c.v. morphine; cited from earlier work.
Data set [6] concerns mice. Description: Conditioned place preference (CPP).
The next data set concerns the target delta opioid receptor (Mus musculus, UniProt P32300). To be noted: Delta cells.
For data set [7], the target named is kappa/delta opioid receptors (Mus musculus, UniProt P32300+P33534).

We go through six molecules from patent publication US8609682B2 (priority 2008, dated 2013).

Chain of mu/delta opioid receptors (P32300 whole entry): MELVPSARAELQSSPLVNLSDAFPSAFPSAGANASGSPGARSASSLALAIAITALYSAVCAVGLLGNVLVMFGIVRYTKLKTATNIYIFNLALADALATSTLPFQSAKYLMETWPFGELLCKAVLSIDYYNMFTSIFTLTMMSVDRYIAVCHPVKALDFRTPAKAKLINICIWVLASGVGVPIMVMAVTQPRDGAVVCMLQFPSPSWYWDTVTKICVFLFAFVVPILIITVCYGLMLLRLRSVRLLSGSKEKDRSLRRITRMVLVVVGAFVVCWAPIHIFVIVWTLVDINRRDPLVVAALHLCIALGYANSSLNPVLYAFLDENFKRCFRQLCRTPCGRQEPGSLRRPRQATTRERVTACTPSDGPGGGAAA
Chain of mu/delta opioid receptors (P42866 whole entry): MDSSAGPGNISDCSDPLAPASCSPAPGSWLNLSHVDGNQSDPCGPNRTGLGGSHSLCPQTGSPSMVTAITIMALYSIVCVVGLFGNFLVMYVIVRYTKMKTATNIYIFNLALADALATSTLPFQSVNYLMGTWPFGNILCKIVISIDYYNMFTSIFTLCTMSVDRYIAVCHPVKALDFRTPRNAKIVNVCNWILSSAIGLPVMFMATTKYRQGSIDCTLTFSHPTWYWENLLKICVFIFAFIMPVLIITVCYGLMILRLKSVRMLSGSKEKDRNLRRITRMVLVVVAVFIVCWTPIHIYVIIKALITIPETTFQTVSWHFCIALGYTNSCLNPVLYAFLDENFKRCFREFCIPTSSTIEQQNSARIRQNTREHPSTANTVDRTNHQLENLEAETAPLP
Chain of delta opioid receptor (P32300 whole entry): as the sequence (P32300 whole entry) above
Chain of kappa/delta opioid receptors (P33534 whole entry): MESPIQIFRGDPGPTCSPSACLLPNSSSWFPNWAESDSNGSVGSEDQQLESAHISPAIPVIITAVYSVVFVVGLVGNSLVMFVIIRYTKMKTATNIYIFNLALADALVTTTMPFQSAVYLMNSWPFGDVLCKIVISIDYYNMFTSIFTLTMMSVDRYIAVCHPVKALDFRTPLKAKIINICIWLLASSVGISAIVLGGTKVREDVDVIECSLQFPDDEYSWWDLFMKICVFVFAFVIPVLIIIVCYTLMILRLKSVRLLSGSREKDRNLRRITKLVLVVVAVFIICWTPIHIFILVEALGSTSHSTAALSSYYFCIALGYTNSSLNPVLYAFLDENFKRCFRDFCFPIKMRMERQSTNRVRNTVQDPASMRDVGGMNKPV
Chain of kappa/delta opioid receptors (P32300 whole entry): as the sequence (P32300 whole entry) above
T2 sequence (P42866 whole entry): as the sequence (P42866 whole entry) above
T1 sequence (P42866 whole entry): as above
T1 sequence (P33534 whole entry): as the sequence (P33534 whole entry) above

For `C[C@@H](NC(=O)[C@@H](N)Cc1ccc(O)cc1)C(=O)NCC(=O)N(C)[C@@H](Cc1ccccc1)C(=O)NCCO` [DAMGO, reference compound], the figures for the “AUCpeak (RFU X seconds), Ca2+ release” value (in [1]; on mu opioid receptor; in data set [2]) were 5562 ± 668, 9989 ± 702 RFU X seconds and 12054 ± 1281 RFU X seconds, respectively.

Consider `Oc1ccc2c3c1O[C@H]1c4[nH]c5ccccc5c4C[C@@]4(O)[C@@H](C2)N(CC2CC2)CC[C@]314` [NTI, naltrindole, reference compound], for which the “peak time of antagonist effect” value in the data set with mice [3] is 20 min.

Take `CN1CC[C@]23c4c5ccc(O)c4O[C@H]2[C@@H](O)C=C[C@H]3[C@H]1C5` [morphine, reference compound]: the “naloxone-induced withdrawal jumping, previous studies” value in the data set on mice [4] is on record as 100 jumps in 10 min. For the same molecule, the “development of tolerance, previous studies, same protocol” value in the data set on mice [5] is 6 fold. Also, in the data set on mice [6] (1200 nmol/kg), the place preference entry is listed as “strong place preference”. Further, the “place preference with naloxone” value with mice [6] (morphine 1200 nmol/kg plus naloxone 300 nmol/kg) was “can be blocked by naloxone”. Moreover, the “time of peak antinociception” value in the data set with mice [3] (i.v., preliminary studies, ICR mice) is listed as 15 min. Besides, the “ED50 (95% CI)” value in the data set on mice [3] (i.v., tail flick) was 420 (378-469) nmol.

For `Oc1ccc2c3c1O[C@H]1c4[nH]c5c(c4C[C@@]4(O)[C@@H](C2)N(CC2CC2)CC[C@]314)C[C@@]1(O)[C@H]2Cc3ccc(O)c4c3[C@@]1(CCN2CC1CC1)[C@H]5O4` [norBNI, norbinaltorphimine, reference compound], the “peak time of antagonist effect” value in the data set on mice [3] came to 20 min.

As to “Cys2-Tyr3-Orn5-Pen7-amide [CTOP, reference compound]”, in the data set with mice [3], the “peak time of antagonist effect” value was determined as 20 min.

Consider DPDPE, for which the figures for the “AUCpeak (RFU X seconds), Ca2+ release” value (on delta opioid receptor; in data set [7]; in [2]) were 8319 ± 1117 RFU X seconds, 10153 ± 1479 and 10504 ± 969 RFU X seconds, respectively.
